{"source": "patent US20140309291A1", "about": "“Compositions and Methods for Increasing Stress Resilience” (The Children's Hospital of Philadelphia, priority 2011, published 2014)", "key": {"[1]": {"assay": "social defeat paradigm (defeat latency)", "type": "in vivo, rats", "conditions": "SL (short latency, vulnerable) animals; drug given 1 hour prior to social defeat stress on 3 days following 7 days of defeat; p=0.0726 (FIG. 2A)", "source_text": "The social defeat paradigm used in these studies was modified from the resident-intruder model (Miczek, K. A. (1979) Psychopharmacology (Berl) 60:253-259). Rats were randomly assigned to either a social defeat or control group for a consecutive 7 days (Bhatnagar et al. (2006) J. Neuroendocrinol., 18:13-24; Buwalda et al. (1999) J. Neuroendocrinol., 11:513-520). During each episode of social stress, a rat was placed into the home cage territory of an unfamiliar Long-Evans resident previously screened for high aggression (Bhatnagar et al. (2006) J. Neuroendocrinol., 18:13-24; Buwalda et al. (1999) J. Neuroendocrinol., 11:513-520). […] After defeat, a wire mesh enclosure was placed in the cage to prevent physical contact between the resident and intruder but allowing visual, auditory, and olfactory contact for the remainder of the 30-minute defeat session. Latency to assume a submissive posture (defeat) was recorded and averaged over the seven daily defeat exposures. […] Rats were returned to their home cage after each session, and body weight was recorded on days 1 and 8. […]\nFollowing 7 days of defeat, the SL and LL groups were divided into two separate treatment groups receiving either vehicle or FTY720, 1 hour prior to social defeat stress on the following 3 days. Defeat latencies were recorded. […]"}, "[2]": {"assay": "social interaction test of anxiety after social defeat stress", "type": "in vivo, rats", "description": "Animals were exposed to 7 days of social defeat stress. During these 7 days of defeat stress the average latency to defeat was observed. Based on this latency to defeat, animals were either classified as short latency (SL, defeat <300 seconds) or long latency (LL, defeat >300 seconds).\nFollowing 7 days of defeat, the SL and LL groups were divided into two separate treatment groups receiving either vehicle or FTY720, 1 hour prior to social defeat stress on the following 3 days. Defeat latencies were recorded. Additionally, 48 hours following the end of social defeat stress, animals were tested in the social interaction test of anxiety."}, "[3]": {"target": "S1P3 receptor (Homo sapiens, UniProt Q99500)", "sequence (Q99500 whole entry)": "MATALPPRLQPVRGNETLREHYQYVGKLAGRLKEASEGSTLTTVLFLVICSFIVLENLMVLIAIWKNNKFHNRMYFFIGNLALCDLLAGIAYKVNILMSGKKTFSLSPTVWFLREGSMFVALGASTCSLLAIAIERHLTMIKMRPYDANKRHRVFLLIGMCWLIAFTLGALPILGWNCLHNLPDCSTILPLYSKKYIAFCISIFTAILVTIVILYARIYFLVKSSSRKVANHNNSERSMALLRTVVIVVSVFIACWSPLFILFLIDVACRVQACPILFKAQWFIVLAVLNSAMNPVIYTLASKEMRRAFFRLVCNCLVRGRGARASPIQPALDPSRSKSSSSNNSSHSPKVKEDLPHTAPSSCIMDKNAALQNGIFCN", "conditions": "multiple Sph receptors, including the S1P3 receptor; cited from earlier work"}}, "data": [{"smiles": "CCCCCCCCc1ccc(CCC(N)(CO)CO)cc1", "note": "[FTY720]", "values": [{"measurement": "defeat latency", "setting": "[1]", "result": "tended to increase defeat latency of SL animals to the level of LL animals"}, {"measurement": "social interaction time", "setting": "[2]; SL animals, tested 48 hours following the end of social defeat stress, p=0.0049 (FIG. 2B)", "result": "prevented the decreased interaction time"}, {"measurement": "effect of the drug in resilient and control animals", "setting": "[2]; resilient LL rats or control rats", "result": "no effects"}, {"measurement": "agonist activity at Sph receptors", "setting": "[3]", "result": "potent agonist"}]}]}
